Test results as given in patent US12076399B2, “Combination therapies for treating cancers” (Cothera Bioscience, Inc., priority 2017, dated 2024).

Assays:
Assay in all cases: Ex vivo drug sensitivity test (EdU proliferation, EpCAM+ cells, high-content imaging) on conditionally reprogrammed patient-derived tumor cells
Format in all cases: cell-based, human
[1] = test system: patient-derived epithelial tumor cells, colon; conditions: EpCAM and Edu positive readout, AUC concentration
Description: (§1) Surgical specimen from colorectal cancer patients, liver cancer patients, lung cancer patients, pancreatic cancer, gastric cancer patients and breast cancer patients were obtained from the Beijing Cancer Hospital and the Cancer Hospital of Chinese Academy of Medical Science after receiving patient consensus. Patient-derived xenograft tumor specimens were obtained from Nod/SCID mice inoculated with surgical tumor specimen from patients.
(§2) For ex vivo drug sensitivity assays, the tumor cells were isolated from the patient tissue sample or PDX xenograft tumor tissue. Briefly, the tumor tissues were cut into small pieces less than 1 mm in diameter using scissors. The tumor fragments were transferred into a sterile 100-ml triangle glass flask loaded with a magnet stir bar. A 10-15 ml digestion media containing 0.25 U/ml Liberase DH was added into the minced tumor tissues to start enzyme digestion. The enzyme mixture was incubated at 37° C. for 1-2 hours with moderate stirring. The digested tumor tissue was filtered through a 100-μm cell retainer. The filtrates were re-filtered through a 40-μm cell restrainer. The tumor cell clusters retained on the 40-μm cell restrainer was collected, wash twice with HBSS, then re-suspended in a defined growth media supplemented with several stem cell growth factors.
(§3) The tumor cell clusters retained on the 40-μm cell restrainer were collected, wash twice with HBSS, then re-suspended in a defined growth media supplemented with cell growth factors and small molecule inhibitors. The tumor cell clusters were recovered in a defined growth medium overnight. The defined growth medium was StemPro® hESC SFM (defined, serum- and feeder-free medium (SFM)) supplemented with: Nicotinamide, Wnt3A, Noggin (Bone Morphogenetic Protein (BMP) inhibitor), R-spondin-1 (Wnt/β-catenin signaling agonist), and Y27632 (Rho-associated, coiled-coil containing protein kinase (ROCK-1) inhibitor).
(§4) For conditional reprogramming, the recovered CTOSs were dissociated into single cells and seeded in a feeder cell/Rock inhibitor (Y27632) co-culture system at about 3000 cells per well in cell culture plate, and grow at 37 C for 3 days.
(§5) For ex vivo drug testing, the seeded tumor cells were exposed to seven EGFR inhibitors, three MEK 1/2 inhibitors, and three CDK 4/6 inhibitors alone, or a combination of EGFR inhibitor and MEK 1/2 inhibitor, a combination of EGFR inhibitor and CDK 4/6 inhibitor, a combination of MEK 1/2 inhibitor and CDK 4/6 inhibitor, and a triple combination of EGFR inhibitor, MEK 1/2 inhibitor, and a CDK 4/6 inhibitor for 72 hours. The treated tumor cells were re-exposed to the same drug or drug combination with a fresh media change for another 72 hours. All drugs were prepared in DMSO and the final concentration of DMSO in media was 0.1%. The tested concentration of the drug and drug combinations were at relevant AUC concentration (see Table E1).
(§6) Following exposure with drug, the epithelial tumor cells were labeled with 5-ethynyl-2′-deoxyuridine (Edu) to assess the tumor cell proliferation rates. The labeling lasted 24 hours in the presence of drug exposure. In the control group, epithelial tumor cells received no drug exposure with media change, but were similarly labeled with Edu. The labeled tumor cell were fixed and stained with Hoechst 33342 in blocking buffer containing 0.5% Triton X-100 and 3% BSA overnight at 4° C. The tumor cells were incubated with EpCAM antibody (1:4000) for 2 hours at room temperature and rinsed with PBST. Subsequently, the tumor cells were incubated with Alexa FluorR 647 conjugated goat-anti-mouse secondary antibody for 30 minutes at room temperature and rinsed with PBST.
(§7) The incorporated Edu was detected by Click-iT reaction where fixed cells were incubated with a reaction mixture containing 1× Click-iT Edu reaction buffer, CuSO4, and azide-conjugated Alexa Fluor dye in the dark. The stained cells were washed with PBS two times before image acquisition and analysis. […]

[2] = test system: patient-derived epithelial tumor cells, gastric; conditions: EpCAM and Edu positive readout, AUC concentration
Description: as §1, §2, §3, §4, §5, §6, §7

[3] = test system: patient-derived epithelial tumor cells, pancrea; conditions: patient ZKB-011, pancrea; EpCAM and Edu positive readout; AUC concentration
Description: as §1, §2, §3, §4, §5, §6, §7

In the case of `CC(C)(C)c1nc(-c2cccc(NS(=O)(=O)c3c(F)cccc3F)c2F)c(-c2ccnc(N)n2)s1` [D, Dabrafenib], the Inhibition percentage ([1]; patient NYL-040, colon) is reported as 7.18%, the “MI (Maximum Inhibition Index)” value ([1]; patient NYL-040, colon) is reported as 1.08 and the Inhibition percentage ([1]; patient NYL-053, colon) is reported as 9.11%. For the same molecule, the “MI (Maximum Inhibition Index)” value ([1]; patient NYL-053, colon) was 1.10, the Inhibition percentage ([1]; patient NYL-109, colon) was 34.25% and the “MI (Maximum Inhibition Index)” value ([1]; patient NYL-109, colon) was 1.52. For the same molecule, the Inhibition percentage ([1]; patient NYL-113, colon) was −3.84%, the “MI (Maximum Inhibition Index)” value ([1]; patient NYL-113, colon) was 0.96 and the Inhibition percentage ([1]; patient NYL-132, colon) was 29.59%. For the same molecule, the “MI (Maximum Inhibition Index)” value ([1]; patient NYL-132, colon) was 1.42, the Inhibition percentage ([1]; patient NYL-149, colon) was 75.06% and the “MI (Maximum Inhibition Index)” value ([1]; patient NYL-149, colon) was 4.01. The Inhibition percentage ([1]; patient NYL-161, colon) was −6.33%, the “MI (Maximum Inhibition Index)” value ([1]; patient NYL-161, colon) was 0.94 and the Inhibition percentage ([1]; patient NYL-170, colon) was 52.58%. The “MI (Maximum Inhibition Index)” value ([1]; patient NYL-170, colon) was 2.11, the Inhibition percentage ([1]; patient NYL-HZ-002, colon) was 0.00% and the “MI (Maximum Inhibition Index)” value ([1]; patient NYL-HZ-002, colon) was 0.83. For the same molecule, the Inhibition percentage ([1]; patient ZKB-007, colon) was 0.00%, the “MI (Maximum Inhibition Index)” value ([1]; patient ZKB-007, colon) was 0.91 and the Inhibition percentage ([1]; patient ZKB-070, colon) was 15.53%. The “MI (Maximum Inhibition Index)” value ([1]; patient ZKB-070, colon) was 1.18, the Inhibition percentage ([1]; patient ZKB-171, colon) was 15.07% and the “MI (Maximum Inhibition Index)” value ([1]; patient ZKB-171, colon) was 1.18. For the same molecule, the Inhibition percentage ([2]; patient NYP-006, gastric) was 0.00%, the “MI (Maximum Inhibition Index)” value ([2]; patient NYP-006, gastric) was 0.47 and the Inhibition percentage ([2]; patient ZKB-165, gastric) was 45.31%. For the same molecule, the “MI (Maximum Inhibition Index)” value ([2]; patient ZKB-165, gastric) was 1.83, the Inhibition percentage [3] was 0.00% and the “MI (Maximum Inhibition Index)” value [3] was 1.00.

For `CC(=O)c1c(C)c2cnc(Nc3ccc(N4CCNCC4)cn3)nc2n(C2CCCC2)c1=O` [P, Palbociclib], the Inhibition percentage ([1]; patient CKY-041, colon) was 9.05%, the “MI (Maximum Inhibition Index)” value ([1]; patient CKY-041, colon) was 1.10 and the Inhibition percentage ([1]; patient NYL-040, colon) was 85.02%. The “MI (Maximum Inhibition Index)” value ([1]; patient NYL-040, colon) was 6.68, the Inhibition percentage ([1]; patient NYL-053, colon) was 63.04% and the “MI (Maximum Inhibition Index)” value ([1]; patient NYL-053, colon) was 2.71. The Inhibition percentage ([1]; patient NYL-109, colon) was 40.42%, the “MI (Maximum Inhibition Index)” value ([1]; patient NYL-109, colon) was 1.68 and the Inhibition percentage ([1]; patient NYL-113, colon) was 44.25%. For the same molecule, the “MI (Maximum Inhibition Index)” value ([1]; patient NYL-113, colon) was 1.79, the Inhibition percentage ([1]; patient NYL-132, colon) was 48.53% and the “MI (Maximum Inhibition Index)” value ([1]; patient NYL-132, colon) was 1.94. For the same molecule, the Inhibition percentage ([1]; patient NYL-149, colon) was 57.40%, the “MI (Maximum Inhibition Index)” value ([1]; patient NYL-149, colon) was 2.35 and the Inhibition percentage ([1]; patient NYL-161, colon) was 26.16%. The “MI (Maximum Inhibition Index)” value ([1]; patient NYL-161, colon) was 1.35, the Inhibition percentage ([1]; patient NYL-170, colon) was 67.64% and the “MI (Maximum Inhibition Index)” value ([1]; patient NYL-170, colon) was 3.09. For the same molecule, the Inhibition percentage ([1]; patient NYL-HZ-002, colon) was 52.48%, the “MI (Maximum Inhibition Index)” value ([1]; patient NYL-HZ-002, colon) was 2.10 and the Inhibition percentage ([1]; patient ZKB-007, colon) was 66.72%. The “MI (Maximum Inhibition Index)” value ([1]; patient ZKB-007, colon) was 3.00, the Inhibition percentage ([1]; patient ZKB-070, colon) was 77.00% and the “MI (Maximum Inhibition Index)” value ([1]; patient ZKB-070, colon) was 4.35. For the same molecule, the Inhibition percentage ([1]; patient ZKB-171, colon) was 30.13%, the “MI (Maximum Inhibition Index)” value ([1]; patient ZKB-171, colon) was 1.43 and the Inhibition percentage ([2]; patient NYP-006, gastric) was 65.36%. The “MI (Maximum Inhibition Index)” value ([2]; patient NYP-006, gastric) was 2.89, the Inhibition percentage ([2]; patient ZKB-165, gastric) was 86.45% and the “MI (Maximum Inhibition Index)” value ([2]; patient ZKB-165, gastric) was 7.38. For the same molecule, the Inhibition percentage [3] was 85.40% and the “MI (Maximum Inhibition Index)” value [3] was 6.85.

With `CC(=O)Nc1cccc(-n2c(=O)n(C3CC3)c(=O)c3c(Nc4ccc(I)cc4F)n(C)c(=O)c(C)c32)c1` [T, Trametinib] the Inhibition percentage ([1]; patient CKY-041, colon) was 5.05%, the “MI (Maximum Inhibition Index)” value ([1]; patient CKY-041, colon) was 1.05 and the Inhibition percentage ([1]; patient NYL-040, colon) was 0.00%. The “MI (Maximum Inhibition Index)” value ([1]; patient NYL-040, colon) was 0.85, the Inhibition percentage ([1]; patient NYL-053, colon) was 49.02% and the “MI (Maximum Inhibition Index)” value ([1]; patient NYL-053, colon) was 1.96. The Inhibition percentage ([1]; patient NYL-109, colon) was 86.79%, the “MI (Maximum Inhibition Index)” value ([1]; patient NYL-109, colon) was 7.57 and the Inhibition percentage ([1]; patient NYL-113, colon) was 46.31%. The “MI (Maximum Inhibition Index)” value ([1]; patient NYL-113, colon) was 1.86, the Inhibition percentage ([1]; patient NYL-132, colon) was 29.60% and the “MI (Maximum Inhibition Index)” value ([1]; patient NYL-132, colon) was 1.42. The Inhibition percentage ([1]; patient NYL-149, colon) was 75.78%, the “MI (Maximum Inhibition Index)” value ([1]; patient NYL-149, colon) was 4.13 and the Inhibition percentage ([1]; patient NYL-161, colon) was 0.59%. The “MI (Maximum Inhibition Index)” value ([1]; patient NYL-161, colon) was 1.01, the Inhibition percentage ([1]; patient NYL-170, colon) was 0.00% and the “MI (Maximum Inhibition Index)” value ([1]; patient NYL-170, colon) was 0.61. For the same molecule, the Inhibition percentage ([1]; patient NYL-HZ-002, colon) was 51.53%, the “MI (Maximum Inhibition Index)” value ([1]; patient NYL-HZ-002, colon) was 2.06 and the Inhibition percentage ([1]; patient ZKB-007, colon) was 0.00%. The “MI (Maximum Inhibition Index)” value ([1]; patient ZKB-007, colon) was 0.76, the Inhibition percentage ([1]; patient ZKB-070, colon) was −34.50% and the “MI (Maximum Inhibition Index)” value ([1]; patient ZKB-070, colon) was 0.74. For the same molecule, the Inhibition percentage ([1]; patient ZKB-171, colon) was 46.02%, the “MI (Maximum Inhibition Index)” value ([1]; patient ZKB-171, colon) was 1.85 and the Inhibition percentage ([2]; patient NYP-006, gastric) was 0.00%. For the same molecule, the “MI (Maximum Inhibition Index)” value ([2]; patient NYP-006, gastric) was 0.55, the Inhibition percentage ([2]; patient ZKB-165, gastric) was 0.00% and the “MI (Maximum Inhibition Index)” value ([2]; patient ZKB-165, gastric) was 0.60. For the same molecule, the Inhibition percentage [3] was 7.36% and the “MI (Maximum Inhibition Index)” value [3] was 1.08.
